Assay results: patent publication US7932270B2 (Cytokinetics, Inc., priority 2006, dated 2011)

target: T1, chicken gizzard smooth muscle myosin subfragment-1 chemically crosslinked to cardiac or skeletal actin (Gallus gallus, UniProt P10587); test: Smooth muscle myosin ATPase dose response assay (pyruvate kinase/horseradish peroxidase/pyruvate oxidase-coupled, amplex red fluorescence); assay type: biochemical; conditions: read-out: IC50 Arithmetic Mean
T1 construct: chicken gizzard smooth muscle myosin subfragment-1; from tissue; host or cells: chicken gizzard
Procedure, shortened: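 Amplex red fluorescence (480 nm excitation, 615 nm emission) tracked ATP hydrolysis by smooth muscle S1 crosslinked to actin with carbodiimide/N-hydroxysuccinimide. Reactions contained 0.15 mM ATP and 100 mM KCl at pH 7.00, 22° C. IC50 came from a four-parameter logistic fit.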

T1 sequence (P02607 2-151): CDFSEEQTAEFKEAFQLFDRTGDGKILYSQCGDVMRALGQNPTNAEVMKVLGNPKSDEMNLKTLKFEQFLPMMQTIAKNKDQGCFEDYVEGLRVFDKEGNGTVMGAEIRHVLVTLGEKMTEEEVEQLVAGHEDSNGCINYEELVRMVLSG
T1 sequence (P10587 84-789): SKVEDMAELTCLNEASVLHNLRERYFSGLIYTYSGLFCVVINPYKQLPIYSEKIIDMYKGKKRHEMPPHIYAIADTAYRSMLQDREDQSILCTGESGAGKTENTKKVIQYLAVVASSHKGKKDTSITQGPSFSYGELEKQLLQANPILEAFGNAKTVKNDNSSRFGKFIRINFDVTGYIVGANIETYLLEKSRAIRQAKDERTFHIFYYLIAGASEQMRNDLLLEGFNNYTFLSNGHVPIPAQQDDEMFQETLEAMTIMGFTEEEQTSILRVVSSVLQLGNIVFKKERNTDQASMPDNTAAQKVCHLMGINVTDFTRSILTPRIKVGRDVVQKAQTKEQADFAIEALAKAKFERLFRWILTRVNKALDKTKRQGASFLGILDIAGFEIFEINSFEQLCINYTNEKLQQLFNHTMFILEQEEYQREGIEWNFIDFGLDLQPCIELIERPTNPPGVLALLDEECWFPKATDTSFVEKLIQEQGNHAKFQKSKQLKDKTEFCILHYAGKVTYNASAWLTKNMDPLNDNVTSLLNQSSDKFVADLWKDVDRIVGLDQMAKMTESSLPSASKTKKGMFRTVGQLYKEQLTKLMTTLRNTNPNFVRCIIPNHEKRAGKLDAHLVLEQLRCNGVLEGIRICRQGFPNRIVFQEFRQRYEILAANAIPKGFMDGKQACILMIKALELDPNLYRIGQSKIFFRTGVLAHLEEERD

SMILES	IC50 [nM]
N#Cc1ccccc1-c1ccc(C(=O)NC[C@H]2CCCC(=O)N2CCCN)c(NCCc2cccc(F)c2)n1 [N-{[(2R)-1-(3-aminopropyl)-6-oxo(2-piperidyl)]methyl}(6-(2-cyanophenyl)-2-{[2-(3-fluorophenyl)ethyl]amino}(3-pyridyl))carboxamide]	26
Cn1cc(-c2ccc(C(=O)NC[C@H]3CNCC(=O)N3CCCN)c(NCCc3cccc(F)c3)n2)cn1 [N-{[(2R)-1-(3-aminopropyl)-6-oxopiperazin-2-yl]methyl}(2-{[2-(3-fluorophenyl)ethyl]amino}-6-(1-methylpyrazol-4-yl)(3-pyridyl))carboxamide]	3560
NCCCN1C(=O)CNC[C@@H]1CNC(=O)c1ccc(-c2cc[nH]n2)nc1NCCc1cccc(F)c1 [N-{[(2R)-1-(3-aminopropyl)-6-oxopiperazin-2-yl]methyl}(2-{[2-(3-fluorophenyl)ethyl]amino}-6-pyrazol-3-yl(3-pyridyl))carboxamide]	9630
NCCCN1C(=O)CNC[C@@H]1CNC(=O)c1ccc(-c2cn[nH]c2)nc1NCCc1cccc(F)c1 [N-{[(2R)-1-(3-aminopropyl)-6-oxopiperazin-2-yl]methyl}(2-{[2-(3-fluorophenyl)ethyl]amino}-6-pyrazol-4-yl(3-pyridyl))carboxamide]	2340
N#Cc1ccccc1-c1ccc(C(=O)NC[C@H]2CNCC(=O)N2CCCN)c(NCCc2cccc(F)c2)n1 [N-{[(2R)-1-(3-aminopropyl)-6-oxopiperazin-2-yl]methyl}(6-(2-cyanophenyl)-2-{[2-(3-fluorophenyl)ethyl]amino}(3-pyridyl))carboxamide]	318
N#Cc1ccccc1-c1ccc(C(=O)NC[C@H]2CCCCN2C(=O)CCCN)c(NCCc2cccc(F)c2)n1 [N-{[(2R)-1-(4-aminobutanoyl)(2-piperidyl)]methyl}(6-(2-cyanophenyl)-2-{[2-(3-fluorophenyl)ethyl]amino}(3-pyridyl))carboxamide]	83
Cn1cc(-c2nc(NCCc3cccc(F)c3)c(C(=O)NC[C@H]3CCN3C(=O)CCCN)cc2F)cn1 [N-{[(2R)-1-(4-aminobutanoyl)azetidin-2-yl]methyl}(5-fluoro-2-{[2-(3-fluorophenyl)ethyl]amino}-6-(1-methylpyrazol-4-yl)(3-pyridyl))carboxamide]	40
N#Cc1ccccc1-c1ccc(C(=O)NC[C@H]2CCN2C(=O)CCCN)c(NCCc2cccc(F)c2)n1 [N-{[(2R)-1-(4-aminobutanoyl)azetidin-2-yl]methyl}(6-(2-cyanophenyl)-2-{[2-(3-fluorophenyl)ethyl]amino}(3-pyridyl))carboxamide]	25
N#Cc1ccccc1-c1ccc(C(=O)NC[C@H]2CNCCN2C(=O)CCCN)c(NCCc2cccc(F)c2)n1 [N-{[(2R)-1-(4-aminobutanoyl)piperazin-2-yl]methyl}(6-(2-cyanophenyl)-2-{[2-(3-fluorophenyl)ethyl]amino}(3-pyridyl))carboxamide]	5480
N#Cc1ccccc1-c1ccc(C(=O)NC[C@H]2CCCN2C(=O)CCCN)c(NCCc2cc(F)cc(F)c2)n1 [N-{[(2R)-1-(4-aminobutanoyl)pyrrolidin-2-yl]methyl}(2-{[2-(3,5-difluorophenyl)ethyl]amino}-6-(2-cyanophenyl)(3-pyridyl))carboxamide]	23
Cc1cc(C(=O)NC[C@H]2CCCN2C(=O)CCCN)c(NCCc2cccc(F)c2)nc1-c1cnn(C)c1 [N-{[(2R)-1-(4-aminobutanoyl)pyrrolidin-2-yl]methyl}(2-{[2-(3-fluorophenyl)ethyl]amino}-5-methyl-6-(1-methylpyrazol-4-yl)(3-pyridyl))carboxamide]	381
Cn1cc(-c2ccc(C(=O)NC[C@H]3CCCN3C(=O)CCCN)c(NCCc3cccc(F)c3)n2)cn1 [N-{[(2R)-1-(4-aminobutanoyl)pyrrolidin-2-yl]methyl}(2-{[2-(3-fluorophenyl)ethyl]amino}-6-(1-methylpyrazol-4-yl)(3-pyridyl))carboxamide]	351
Cn1cc(-c2nc(NCCc3cccc(F)c3)c(C(=O)NC[C@H]3CCCN3C(=O)CCCN)cc2Cl)cn1 [N-{[(2R)-1-(4-aminobutanoyl)pyrrolidin-2-yl]methyl}(5-chloro-2-{[2-(3-fluorophenyl)ethyl]amino}-6-(1-methylpyrazol-4-yl)(3-pyridyl))carboxamide]	47
Cn1cc(-c2nc(NCCc3cccc(F)c3)c(C(=O)NC[C@H]3CCCN3C(=O)CCCN)cc2C#N)cn1 [N-{[(2R)-1-(4-aminobutanoyl)pyrrolidin-2-yl]methyl}(5-cyano-2-{[2-(3-fluorophenyl)ethyl]amino}-6-(1-methylpyrazol-4-yl)(3-pyridyl))carboxamide]	211
N#Cc1cc(C(=O)NC[C@H]2CCCN2C(=O)CCCN)c(NCCc2cccc(F)c2)nc1-c1cn[nH]c1 [N-{[(2R)-1-(4-aminobutanoyl)pyrrolidin-2-yl]methyl}(5-cyano-2-{[2-(3-fluorophenyl)ethyl]amino}-6-pyrazol-4-yl(3-pyridyl))carboxamide]	359
Cn1cc(-c2nc(NCCc3cccc(F)c3)c(C(=O)NC[C@H]3CCCN3C(=O)CCCN)cc2F)cn1 [N-{[(2R)-1-(4-aminobutanoyl)pyrrolidin-2-yl]methyl}(5-fluoro-2-{[2-(3-fluorophenyl)ethyl]amino}-6-(1-methylpyrazol-4-yl)(3-pyridyl))carboxamide]	87
NCCCC(=O)N1CCCC1CNC(=O)c1cc(F)c(-c2cc[nH]n2)nc1NCCc1cccc(F)c1 [N-{[(2R)-1-(4-aminobutanoyl)pyrrolidin-2-yl]methyl}(5-fluoro-2-{[2-(3-fluorophenyl)ethyl]amino}-6-pyrazol-3-yl(3-pyridyl))carboxamide]	169
NCCCC(=O)N1CCC[C@@H]1CNC(=O)c1cc(F)c(-c2cn[nH]c2)nc1NCCc1cccc(F)c1 [N-{[(2R)-1-(4-aminobutanoyl)pyrrolidin-2-yl]methyl}(5-fluoro-2-{[2-(3-fluorophenyl)ethyl]amino}-6-pyrazol-4-yl(3-pyridyl))carboxamide]	47
N#Cc1ccccc1-c1ccc(C(=O)NC[C@H]2CCCN2C(=O)CCCN)c(NCCc2cccc(F)c2)n1 [N-{[(2R)-1-(4-aminobutanoyl)pyrrolidin-2-yl]methyl}(6-(2-cyanophenyl)-2-{[2-(3-fluorophenyl)ethyl]amino}(3-pyridyl))carboxamide]	29
N#Cc1ccccc1-c1nc(NCCc2cccc(F)c2)c(C(=O)NC[C@H]2CCCN2C(=O)CCCN)cc1F [N-{[(2R)-1-(4-aminobutanoyl)pyrrolidin-2-yl]methyl}(6-(2-cyanophenyl)-5-fluoro-2-{[2-(3-fluorophenyl)ethyl]amino}(3-pyridyl))carboxamide]	38
N#Cc1ccccc1-c1ccc(C(=O)NC[C@H]2CCCN2C(=O)CCCN)c(NCCC2=CCCCC2)n1 [N-{[(2R)-1-(4-aminobutanoyl)pyrrolidin-2-yl]methyl}{6-(2-cyanophenyl)-2-[(2-cyclohex-1-enylethyl)amino](3-pyridyl)}carboxamide]	133
N#Cc1ccccc1-c1ccc(C(=O)NC[C@H]2CCCN2C(=O)CCCN)c(NCCc2ccccc2)n1 [N-{[(2R)-1-(4-aminobutanoyl)pyrrolidin-2-yl]methyl}{6-(2-cyanophenyl)-2-[(2-phenylethyl)amino](3-pyridyl)}carboxamide]	62
